Measured values: US20090281054A1, “COMPOSITIONS AND METHODS COMPRISING CAPURAMYCIN ANALOGUES” (priority 2008, published 2009)
≈ marks a conversion by molar mass, not a printed value. Read-outs that look alike come from different tables or passages of the source.

Experiments:
[1] = test system: M. abscessus (MAB; ATCC 700869); test: MIC by microdilution method in 7H9 broth; format: cell-based; settings: Mycobacteroides abscessus, ATCC700869; MAB 700869; read-out: MIC
MTB [2] = test: Activity in acidic pH (microdilution in 7H9 broth); format: cell-based, Mycobacterium tuberculosis; settings: pH 7.0 to 5.0
Description: Activity in acidic pH. The pH in macrophage phagolysomes is ˜5.5. To be effective against intracellular organisms, anti-TB drugs should concentrate inside macrophages and be active in an acidic environment. The activity of SQ641 against MTB was investigated by microdilution method in 7H9 broth at different hydrogen ion concentrations.

MTB cultures = test: Induction of morphological changes and bacterial disintegration; format: cell-based, Mycobacterium tuberculosis
Description: Induction of morphological changes and bacterial disintegration. […] Tubercle bacilli exposed to CM analogues were typically club-shaped, with deeply stained swollen ends (see Reddy et al. Antimicrob. Agents Chemother., 2008, 52(2), 719-721).

MTB [3] = test: Synergy by checkerboard titration (microdilution); format: cell-based, Mycobacterium tuberculosis
Protocol: Synergistic activity with other anti-TB drugs against MSMG, MTB, MAB, and MAC. Synergy with other anti-mycobacterial drugs was determined in two drug combinations by checkerboard titration using a microdilution method. Fractional inhibitory concentration (FIC) is the MIC in combination divided by the MIC of individual drug. An FIC index (ΣFIC) of ≦0.5 indicates synergistic activity, ≧4.0 antagonistic activity and in between, additive effect. Synergistic activity was determined against MSMG, MTB, MAB and MAC. All the three CM analogues were tested in combination with INH, RIF, EMB and SM against MSMG. Similarly, all the three CM analogues were tested in combination with INH, EMB, SM and SQ109 against MTB. Only SQ641 was tested in combination with EMB, clarithromycin (CLA) and amikacin (AMK) against MAC.

MTB in J774A.1 cells = test: Intracellular activity of SQ641 with efflux pump blockers; format: cell-based, Mycobacterium tuberculosis; settings: 4 days exposure
MTB in J774 cells = test: Intracellular activity of amino acid conjugates; format: cell-based, Mycobacterium tuberculosis; settings: day 0 RLU 775, Control day 7 31700
Protocol: The amino acid conjugates were tested at concentrations of 4 mg/mL and 8 mg/mL compared with a control and isoniazid (INH).
The intracellular activity against MTB by capuramycin amino acid derivatives was tested. Cells J774 were infected with MTB and treated for 7 days with the amino acid derivative. The mean Relative Light Unites (RLU), an estimation of bacterial viability, was measured as described in Snewin et al., Infect. Immun., 1999, 67(9), 4586-4593).

M. avium complex (MAC) = test: MIC by microdilution method in 7H9 broth; format: cell-based
[4] = test system: MTB-pSMT1 luciferase reporter strain; test: Activity against slowly replicating (hypoxic) MTB; format: cell-based; settings: Mycobacterium tuberculosis
[5] = test system: M. kansaii (MKN; ATCC12478 & 35775); test: MIC by microdilution method in 7H9 broth; format: cell-based, M. kansasii; settings: Mycobacterium kansasii, read-out: MIC
MTB inside macrophages = test: Intracellular activity of DMSO-solubilized drug in MTB infected macrophages; format: cell-based, Mycobacterium tuberculosis; settings: for Mean RLU at Day 7: Day 0 RLU 443, Control Day 7 4251
MTB [6] = test: In vivo efficacy in mouse model of chronic TB disease (lung CFU); settings: mice treated for 3 wk, starting 3 wk after infection, gav, ip, iv
Protocol: In vivo activity against MTB. In vivo efficacy of CM analogues was investigated in a mouse model of chronic TB disease (FIG. 2). Three wk after infection, mice were treated for 3 wk with the drugs by gavage (gav), intraperitoneal injection (ip), intravenous injection (iv), or intranasal (in) routes. Efficacy was analyzed by determining Colony-Forming Units (CFU) in lungs. […] Each achieved a decrease of 1-log10 lung CFU compared to the late control [LC] CFU by at least one route, which varied for each drug.

MTB in macrophages = format: cell-based, Mycobacterium tuberculosis
translocase I = translocase I (Escherichia coli, UniProt P0A6W3); test: IC50 against translocase I; format: biochemical
Sequence of translocase I (P0A6W3 whole entry): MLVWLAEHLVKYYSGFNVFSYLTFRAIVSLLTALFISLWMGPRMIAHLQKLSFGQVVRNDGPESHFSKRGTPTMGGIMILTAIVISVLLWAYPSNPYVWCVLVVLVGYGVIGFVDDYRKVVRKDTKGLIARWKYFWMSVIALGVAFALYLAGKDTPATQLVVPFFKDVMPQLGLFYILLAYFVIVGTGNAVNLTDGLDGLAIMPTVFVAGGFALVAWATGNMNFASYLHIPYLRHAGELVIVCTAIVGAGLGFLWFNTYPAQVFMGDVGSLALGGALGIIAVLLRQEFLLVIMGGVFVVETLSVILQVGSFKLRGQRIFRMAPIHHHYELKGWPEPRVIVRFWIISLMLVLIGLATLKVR

[7] = test system: Mycobacteria (all mycobacterial species tested); test: In vitro MIC and MBC across mycobacterial species; format: cell-based; settings: NTM tested (Table 5)
MSMG and MTB (H37Rv) = test: Minimum bactericidal concentration (MBC), MBC/MIC ratio; format: cell-based, Mycobacterium tuberculosis; M. smegmatis

## CCCCCCCCCC(=O)O[C@@H]1[C@H](OC)[C@@H]([C@@H](O[C@H]2OC(C(=O)N[C@H]3CCC[C@@H](C)NC3=O)=C[C@H](O)[C@@H]2O)C(N)=O)O[C@H]1n1ccc(=O)[nH]c1=O [SQ641]
[1]
  MIC: 0.5 µg/mL (≈ 0.678 µM)
MTB [2]
  Activity at different hydrogen ion concentrations: no loss
MTB cultures; MTB cultures
  Bacterial disintegration / clearance of MTB cultures: rapid bacterial disintegration
MTB cultures; within 2 days of exposure
  Turbidity of MTB cultures: marked fall in the turbidity
MTB [3]
  Synergy with other anti-mycobacterial drugs: synergistic activity with EMB, the new diamine antitubercular SQ109, and streptomycin against MTB
MTB [3]; SQ641 + EMB
  ΣFIC: 0.156
MTB in J774A.1 cells; SQ641 1 μg/ml + CsA10 (12 μg/ml), Day 0 RLU 811, Control Day 7 3004
  Mean RLU at Day 7: 342 RLU
MTB in J774A.1 cells; SQ641 1 μg/ml + VE10 (5 μg/ml), Day 0 RLU 425, Control Day 7 6283
  Mean RLU at Day 7: 686 RLU
MTB in J774A.1 cells; SQ641 1 μg/ml, Day 0 RLU 425, Control Day 7 6283
  Mean RLU at Day 7: 3866 RLU
MTB in J774A.1 cells; SQ641 1 μg/ml, Day 0 RLU 811, Control Day 7 3004
  Mean RLU at Day 7: 2233 RLU
MTB in J774A.1 cells; SQ641 2 μg/ml + CsA10 (12 μg/ml), Day 0 RLU 811, Control Day 7 3004
  Mean RLU at Day 7: 43 RLU
MTB in J774A.1 cells; SQ641 2 μg/ml + VE10 (5 μg/ml), Day 0 RLU 425, Control Day 7 6283
  Mean RLU at Day 7: 509 RLU
MTB in J774A.1 cells; SQ641 2 μg/ml, Day 0 RLU 425, Control Day 7 6283
  Mean RLU at Day 7: 2362 RLU
MTB in J774A.1 cells; SQ641 2 μg/ml, Day 0 RLU 811, Control Day 7 3004
  Mean RLU at Day 7: 1361 RLU
MTB in J774A.1 cells; SQ641 4 μg/ml + CsA10 (12 μg/ml), Day 0 RLU 811, Control Day 7 3004
  Mean RLU at Day 7: 28 RLU
MTB in J774A.1 cells; SQ641 4 μg/ml + VE10 (5 μg/ml), Day 0 RLU 425, Control Day 7 6283
  Mean RLU at Day 7: 368 RLU
MTB in J774A.1 cells; SQ641 4 μg/ml, Day 0 RLU 425, Control Day 7 6283
  Mean RLU at Day 7: 2329 RLU
MTB in J774A.1 cells; SQ641 4 μg/ml, Day 0 RLU 811, Control Day 7 3004
  Mean RLU at Day 7: 1476 RLU
MTB in J774A.1 cells; SQ641 8 μg/ml + CsA10 (12 μg/ml), Day 0 RLU 811, Control Day 7 3004
  Mean RLU at Day 7: 15 RLU
MTB in J774A.1 cells; SQ641 8 μg/ml + VE10 (5 μg/ml), Day 0 RLU 425, Control Day 7 6283
  Mean RLU at Day 7: 44 RLU
MTB in J774A.1 cells; SQ641 8 μg/ml, Day 0 RLU 425, Control Day 7 6283
  Mean RLU at Day 7: 1392 RLU
MTB in J774A.1 cells; SQ641 8 μg/ml, Day 0 RLU 811, Control Day 7 3004
  Mean RLU at Day 7: 850 RLU
MTB in J774A.1 cells; SQ641 16 μg/ml + CsA10 (12 μg/ml), Day 0 RLU 811, Control Day 7 3004
  Mean RLU at Day 7: 14 RLU
MTB in J774A.1 cells; SQ641 16 μg/ml + VE10 (5 μg/ml), Day 0 RLU 425, Control Day 7 6283
  Mean RLU at Day 7: 18 RLU
MTB in J774A.1 cells; SQ641 16 μg/ml, Day 0 RLU 425, Control Day 7 6283
  Mean RLU at Day 7: 654 RLU
MTB in J774A.1 cells; SQ641 16 μg/ml, Day 0 RLU 811, Control Day 7 3004
  Mean RLU at Day 7: 346 RLU
MTB in J774A.1 cells; SQ641 32 μg/ml + CsA10 (12 μg/ml), Day 0 RLU 811, Control Day 7 3004
  Mean RLU at Day 7: 11 RLU
MTB in J774A.1 cells; SQ641 32 μg/ml + VE10 (5 μg/ml), Day 0 RLU 425, Control Day 7 6283
  Mean RLU at Day 7: 12 RLU
MTB in J774A.1 cells; SQ641 32 μg/ml, Day 0 RLU 425, Control Day 7 6283
  Mean RLU at Day 7: 141 RLU
MTB in J774A.1 cells; SQ641 32 μg/ml, Day 0 RLU 811, Control Day 7 3004
  Mean RLU at Day 7: 113 RLU
MTB in J774 cells; 4 μg/ml
  Mean RLU on day 7: 4707 RLU
MTB in J774 cells; 8 μg/ml
  Mean RLU on day 7: 2755 RLU
M. avium complex (MAC); Mycobacterium avium, 336 h, MAC isolates, 2 wk, read-out: MIC (range)
  MIC: 0.125 to 2 µg/mL (≈ 0.169 to 2.71 µM)
M. avium complex (MAC); Mycobacterium avium, MAC strain 100, read-out: MIC
  MIC: 2 µg/mL (≈ 2.71 µM)
M. avium complex (MAC); Mycobacterium avium, MAC strain 101, read-out: MIC
  MIC: 0.12 µg/mL (≈ 0.163 µM)
M. avium complex (MAC); Mycobacterium avium, MAC strain 104, read-out: MIC
  MIC: 2 µg/mL (≈ 2.71 µM)
M. avium complex (MAC); Mycobacterium avium, MAC strain 109, read-out: MIC
  MIC: 0.12 µg/mL (≈ 0.163 µM)
M. avium complex (MAC); Mycobacterium avium, MAC strain A5, read-out: MIC
  MIC: 0.5 µg/mL (≈ 0.678 µM)
M. avium complex (MAC); Mycobacterium avium, MAC strain JSH1, read-out: MIC
  MIC: 2 µg/mL (≈ 2.71 µM)
M. avium complex (MAC); Mycobacterium avium, MAC strain NIH C1-1, read-out: MIC
  MIC: 0.5 µg/mL (≈ 0.678 µM)
M. avium complex (MAC); Mycobacterium avium, MAC strain NIH C1-2, read-out: MIC
  MIC: 0.25 µg/mL (≈ 0.339 µM)
M. avium complex (MAC); Mycobacterium avium, MAC strain NIH C1-3, read-out: MIC
  MIC: 2 µg/mL (≈ 2.71 µM)
M. avium complex (MAC); Mycobacterium avium, MAC strain NIH C1-4, read-out: MIC
  MIC: 0.5 µg/mL (≈ 0.678 µM)
M. avium complex (MAC); Mycobacterium avium, MAC isolates, value in square brackets, read-out: MIC90
  MIC90: 2 µg/mL (≈ 2.71 µM)
M. avium complex (MAC); ten MAC isolates (Table 6)
  MIC range: 0.125 to 2 µg/mL
[4]
  MIC: 0.5 µg/mL (≈ 0.678 µM)
[5]; ATCC 12478 / ATCC 35775, MKN ATCC35775
  MIC: 0.25 µg/mL (≈ 0.339 µM)
[5]; MKN ATCC12478
  MIC: 1 µg/mL (≈ 1.36 µM)
MTB inside macrophages; 1 μg/ml
  Mean RLU at Day 7: 1208 RLU
MTB inside macrophages; 2 μg/ml
  Mean RLU at Day 7: 1162 RLU
MTB inside macrophages; 4 μg/ml
  Mean RLU at Day 7: 1116 RLU
MTB inside macrophages; 8 μg/ml
  Mean RLU at Day 7: 441 RLU
MTB inside macrophages; 16 μg/ml
  Mean RLU at Day 7: 253 RLU
MTB inside macrophages; 32 μg/ml
  Mean RLU at Day 7: 190 RLU
MTB inside macrophages; 1× and 2× MIC
  Intracellular activity (FIG. 1): showed intracellular activities
MTB [6]
  Routes by which replication of MTB in lungs was prevented (vs early control): all but intranasal
MTB in macrophages
  RLU lower than the drug dissolved in DMSO: about 50%
MTB in macrophages; SQ641 2 μg/ml, day 0 RLU 1397, Control day 7 9075
  Mean RLU on day 7: 3535 RLU
Translocase I
  IC50 against translocase I: 0.55 µg/mL (≈ 0.745 µM)
[7]
  MIC90: 2 µg/mL (≈ 2.71 µM)
MSMG and MTB (H37Rv)
  MBC/MIC ratio: 1
